Experimental data taken from patent US10538555B2, “Macrocyclic inhibitors of the PD-1/PD-L1 and CD80(B7-1)/PD-L1 protein/protein interactions” (BRISTOL-MYERS SQUIBB COMPANY, priority 2014, dated 2020).
Where a SMILES comes first, the peptide text is derived from it. Bridges are numbered along the chain shown (N, C = ends). [ ]: non-standard residue; d: D form. ξ: configuration not given here. Trp(1-CH2COOH) = N[C@@H](Cc1cn(CC(=O)O)c2ccccc12)C(=O)O; Hyp = O=C(O)[C@@H]1C[C@@H](O)CN1; NMeNle = CCCC[C@H](NC)C(=O)O; NMeA = CN[C@@H](C)C(=O)O; Orn = NCCC[C@H](N)C(=O)O; Dab = NCC[C@H](N)C(=O)O; Dap = NC[C@H](N)C(=O)O; ξP = O=C(O)C1CCCN1

Biological target: T1, Human PD-L1/PD-1 (Homo sapiens, UniProt Q9NZQ7)
T1 construct: TVMV protease cleavage site (C); made in house; host or cells: HEK293T cells
Experiment: HTRF Human PD-L1/PD-1 binding assay (PD-1-Ig/PD-L1-His)
Details: PD-L1-His 10 nM, PD-1-Ig 20 nM; class symbol; read-out: HTRF Human PD-L1/PD-1 Binding Assay IC50 Range
Outline: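 Compound preincubated 15 min with PD-L1-His (10 nM final), then PD-1-Ig (20 nM final) added for 15 min in dPBS with 0.1% BSA and 0.05% Tween-20. Detection by Eu-cryptate anti-Ig (1 nM) and APC anti-His (20 nM) after 30 min; 665/620 nm HTRF ratio. Proteins expressed in HEK293T.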

T1 sequence (Q9NZQ7 with tags, fused parts or gaps): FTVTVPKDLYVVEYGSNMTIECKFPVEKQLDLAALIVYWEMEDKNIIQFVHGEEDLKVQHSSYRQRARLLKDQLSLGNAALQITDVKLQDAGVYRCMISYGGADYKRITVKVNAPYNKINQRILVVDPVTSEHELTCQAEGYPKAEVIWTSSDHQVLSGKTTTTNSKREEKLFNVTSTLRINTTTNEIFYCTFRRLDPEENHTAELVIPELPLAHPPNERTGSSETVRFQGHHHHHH

Row | Structure (SMILES) | IC50 [nM]
1 | CCCC[C@H]1C(=O)N(C)[C@@H](CCCC)C(=O)N[C@@H](CCC(=O)O)C(=O)N[C@H](C(=O)NCC(N)=O)CSCC(=O)N[C@@H](Cc2ccc(O)cc2)C(=O)N(C)[C@@H](C)C(=O)N[C@@H](CC(N)=O)C(=O)N2CCCC2C(=O)N[C@@H](CO)C(=O)N[C@@H](CC(C)C)C(=O)N2C[C@H](O)C[C@H]2C(=O)N[C@@H](Cc2c[nH]c3ccccc23)C(=O)N[C@@H](CO)C(=O)N[C@@H](Cc2cn(CC(=O)O)c3ccccc23)C(=O)N1C (some centres unmarked) [Example 6250] ({CH2CO}-Y[NMeA]N[ξP]SL[Hyp]WS[Trp(1-CH2COOH)][NMeNle][NMeNle]ECG-NH2; thioether N-14) | 1 to 9.9
2 | CCCC[C@H]1C(=O)N(C)[C@@H](CCCC)C(=O)N[C@@H](CC(C)C)C(=O)N[C@H](C(N)=O)CSCC(=O)N[C@@H](Cc2ccc(O)cc2)C(=O)N(C)[C@@H](C)C(=O)N[C@@H](CC(N)=O)C(=O)N2CCC[C@H]2C(=O)N[C@@H](CN)C(=O)N[C@@H](CC(C)C)C(=O)N2C[C@H](O)C[C@H]2C(=O)N[C@@H](Cc2c[nH]c3ccccc23)C(=O)N[C@@H](CC(=O)O)C(=O)N[C@@H](Cc2cn(CC(=O)O)c3ccccc23)C(=O)N1C [Example 6258] ({CH2CO}-Y[NMeA]NP[Dap]L[Hyp]WD[Trp(1-CH2COOH)][NMeNle][NMeNle]LC-NH2; thioether N-14) | 10 to 99.9
3 | CCCC[C@H]1C(=O)N(C)[C@@H](CCCC)C(=O)N[C@@H](CC(C)C)C(=O)N[C@H](C(=O)NCC(N)=O)CSCC(=O)N[C@@H](Cc2ccc(O)cc2)C(=O)N(C)[C@@H](C)C(=O)N[C@@H](CC(N)=O)C(=O)N[C@H](C)C(=O)N[C@@H](Cc2cnc[nH]2)C(=O)N[C@@H](CCC(N)=O)C(=O)N2C[C@H](O)C[C@H]2C(=O)N[C@@H](Cc2c[nH]c3ccccc23)C(=O)N[C@@H](CO)C(=O)N[C@@H](Cc2c[nH]c3ccccc23)C(=O)N1C [Example 6262] ({CH2CO}-Y[NMeA]N[dA]HQ[Hyp]WSW[NMeNle][NMeNle]LCG-NH2; thioether N-14) | 1 to 9.9
4 | CCCC[C@H]1C(=O)N(C)[C@@H](CCCC)C(=O)N[C@@H](CC(C)C)C(=O)N[C@H](C(=O)NCC(N)=O)CSCC(=O)N[C@@H](Cc2ccc(O)cc2)C(=O)N(C)[C@@H](C)C(=O)N[C@@H](CC(N)=O)C(=O)N2CCC[C@H]2C(=O)N[C@@H](CO)C(=O)N[C@@H](CCC(=O)O)C(=O)N2C[C@H](O)C[C@H]2C(=O)N[C@@H](Cc2c[nH]c3ccccc23)C(=O)N[C@@H](CCN)C(=O)N[C@@H](Cc2cn(CC(=O)O)c3ccccc23)C(=O)N1C [Example 6266] ({CH2CO}-Y[NMeA]NPSE[Hyp]W[Dab][Trp(1-CH2COOH)][NMeNle][NMeNle]LCG-NH2; thioether N-14) | 10 to 99.9
5 | CCCC[C@H]1C(=O)N(C)[C@@H](CCCC)C(=O)N[C@@H](CCC(=O)O)C(=O)N[C@H](C(=O)NCC(N)=O)CSCC(=O)N[C@@H](Cc2ccc(O)cc2)C(=O)N(C)[C@@H](C)C(=O)N[C@@H](CC(N)=O)C(=O)N2CCC[C@H]2C(=O)N[C@@H](Cc2cnc[nH]2)C(=O)N[C@@H](CCCN)C(=O)N2C[C@H](O)C[C@H]2C(=O)N[C@@H](Cc2c[nH]c3ccccc23)C(=O)N[C@@H](CCCCN)C(=O)N[C@@H](Cc2cn(CC(=O)O)c3ccccc23)C(=O)N1C [Example 6267] ({CH2CO}-Y[NMeA]NPH[Orn][Hyp]WK[Trp(1-CH2COOH)][NMeNle][NMeNle]ECG-NH2; thioether N-14) | 1 to 9.9
6 | CCCC[C@H]1C(=O)N(C)[C@@H](CCCC)C(=O)N[C@@H](CCCN)C(=O)N[C@H](C(=O)NCC(N)=O)CSCC(=O)N[C@@H](Cc2ccc(O)cc2)C(=O)N(C)[C@@H](C)C(=O)N[C@@H](CC(=O)O)C(=O)N2CCC[C@H]2C(=O)N[C@@H](Cc2cnc[nH]2)C(=O)N[C@@H](CCC(=O)O)C(=O)N2C[C@H](O)C[C@H]2C(=O)N[C@@H](Cc2c[nH]c3ccccc23)C(=O)N[C@@H](CO)C(=O)N[C@@H](Cc2cn(CC(=O)O)c3ccccc23)C(=O)N1C [Example 6269] ({CH2CO}-Y[NMeA]DPHE[Hyp]WS[Trp(1-CH2COOH)][NMeNle][NMeNle][Orn]CG-NH2; thioether N-14) | 10 to 99.9
7 | CCCC[C@H]1C(=O)N(C)[C@@H](CCCC)C(=O)N[C@@H](CC(C)C)C(=O)N[C@H](C(=O)NCC(N)=O)CSCC(=O)N[C@@H](Cc2ccc(O)cc2)C(=O)N(C)[C@@H](C)C(=O)N[C@@H](CC(N)=O)C(=O)N2CCC[C@H]2C(=O)N[C@@H](CN)C(=O)N[C@@H](CC(C)C)C(=O)N2CCC[C@H]2C(=O)N[C@@H](Cc2c[nH]c3ccccc23)C(=O)N[C@@H](CCN)C(=O)N[C@@H](Cc2ccc(O)cc2)C(=O)N1C [Example 6272] ({CH2CO}-Y[NMeA]NP[Dap]LPW[Dab]Y[NMeNle][NMeNle]LCG-NH2; thioether N-14) | 1 to 9.9
8 | CCCC[C@H]1C(=O)N(C)[C@@H](CCCC)C(=O)N[C@@H](CO)C(=O)N[C@H](C(=O)NCC(N)=O)CSCC(=O)N[C@@H](Cc2ccc(O)cc2)C(=O)N(C)[C@@H](C)C(=O)N[C@@H](CC(=O)O)C(=O)N2CCC[C@H]2C(=O)N[C@@H](CO)C(=O)N[C@@H](CC(C)C)C(=O)N2C[C@H](O)C[C@H]2C(=O)N[C@@H](Cc2c[nH]c3ccccc23)C(=O)N[C@@H](CO)C(=O)N[C@@H](Cc2cn(CC(=O)O)c3ccccc23)C(=O)N1C [Example 6274] ({CH2CO}-Y[NMeA]DPSL[Hyp]WS[Trp(1-CH2COOH)][NMeNle][NMeNle]SCG-NH2; thioether N-14) | 1 to 9.9
9 | CCCC[C@H]1C(=O)N(C)[C@@H](CCCC)C(=O)N[C@@H](CC(C)C)C(=O)N[C@H](C(=O)NCC(N)=O)CSCC(=O)N[C@@H](Cc2ccc(O)cc2)C(=O)N(C)[C@@H](C)C(=O)N[C@@H](CC(=O)O)C(=O)N2CCC[C@H]2C(=O)N[C@@H](Cc2cnc[nH]2)C(=O)N[C@@H](CCC(=O)O)C(=O)N2C[C@H](O)C[C@H]2C(=O)N[C@@H](Cc2c[nH]c3ccccc23)C(=O)N[C@@H](CO)C(=O)N[C@@H](Cc2cn(CC(=O)O)c3ccccc23)C(=O)N1C [Example 6276] ({CH2CO}-Y[NMeA]DPHE[Hyp]WS[Trp(1-CH2COOH)][NMeNle][NMeNle]LCG-NH2; thioether N-14) | 1 to 9.9
10 | CCCC[C@H]1C(=O)N(C)[C@@H](CCCC)C(=O)N[C@@H](CC(C)C)C(=O)N[C@H](C(=O)NCC(N)=O)CSCC(=O)N[C@@H](Cc2ccc(O)cc2)C(=O)N(C)[C@@H](C)C(=O)N[C@@H](CC(=O)O)C(=O)N2CCC[C@H]2C(=O)N[C@@H](CN)C(=O)N[C@@H](CC(C)C)C(=O)N2CCC[C@H]2C(=O)N[C@@H](Cc2c[nH]c3ccccc23)C(=O)N[C@@H](CCN)C(=O)N[C@@H](Cc2cn(CC(=O)O)c3ccccc23)C(=O)N1C [Example 6283] ({CH2CO}-Y[NMeA]DP[Dap]LPW[Dab][Trp(1-CH2COOH)][NMeNle][NMeNle]LCG-NH2; thioether N-14) | 1 to 9.9
11 | CCCC[C@H]1C(=O)N(C)[C@@H](CCCC)C(=O)N[C@@H](CCC(=O)O)C(=O)N[C@H](C(=O)NCC(N)=O)CSCC(=O)N[C@@H](Cc2ccc(O)cc2)C(=O)N(C)[C@@H](C)C(=O)N[C@@H](CC(N)=O)C(=O)N2CCCC2C(=O)N[C@@H](Cc2cnc[nH]2)C(=O)N[C@@H](CCC(N)=O)C(=O)N2C[C@H](O)C[C@H]2C(=O)N[C@@H](Cc2c[nH]c3ccccc23)C(=O)N[C@@H](CCN)C(=O)N[C@@H](Cc2cn(CC(=O)O)c3ccccc23)C(=O)N1C (some centres unmarked) [Example 6288] ({CH2CO}-Y[NMeA]N[ξP]HQ[Hyp]W[Dab][Trp(1-CH2COOH)][NMeNle][NMeNle]ECG-NH2; thioether N-14) | 1 to 9.9
